In paper PMC3003262 (Drug development research, 2010):
Where two headings read alike, the source gives them in different places.

Experiments:
[1] = target: T1, human CB1 wild-type (WT) receptor (Homo sapiens, UniProt P21554); assay: Competition binding with [3H]SR141716A, wild-type CB1 membranes
[2] = target: T2, human CB1 F268W mutant receptor (Homo sapiens, UniProt P21554, F268W); assay: biochemical; assay type: binding; conditions: for loss in affinity relative to wild-type receptor: F268W receptor vs WT
T2 sequence (P21554 whole entry F268W): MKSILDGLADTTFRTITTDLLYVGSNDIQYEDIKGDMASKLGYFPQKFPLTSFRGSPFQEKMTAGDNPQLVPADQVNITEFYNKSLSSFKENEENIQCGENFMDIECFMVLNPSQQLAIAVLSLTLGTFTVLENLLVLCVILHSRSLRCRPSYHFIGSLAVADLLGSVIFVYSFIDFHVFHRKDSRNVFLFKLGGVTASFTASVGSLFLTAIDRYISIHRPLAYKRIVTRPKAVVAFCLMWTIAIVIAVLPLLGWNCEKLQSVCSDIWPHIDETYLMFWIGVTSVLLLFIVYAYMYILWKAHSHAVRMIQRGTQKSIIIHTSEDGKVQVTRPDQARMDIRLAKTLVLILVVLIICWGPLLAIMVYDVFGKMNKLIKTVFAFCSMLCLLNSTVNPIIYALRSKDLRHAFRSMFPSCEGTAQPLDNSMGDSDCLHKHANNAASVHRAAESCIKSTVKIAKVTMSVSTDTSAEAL

[3] = target: T3, human CB1 P269A mutant receptor (Homo sapiens, UniProt P21554, P269A); assay: biochemical; assay type: binding
T3 sequence (P21554 whole entry P269A): as the sequence (P21554 whole entry F268W) above, with W268F, P269A counted along it

[4] = target: human CB1 H270A mutant receptor (Homo sapiens, UniProt P21554, H270A); assay: biochemical; assay type: binding
Chain of human CB1 H270A mutant receptor (P21554 whole entry H270A): as the sequence (P21554 whole entry F268W) above, with W268F, H270A counted along it

[5] = target: T4, human CB1 I271A mutant receptor (Homo sapiens, UniProt P21554, I271A); assay: biochemical; assay type: binding; conditions: for loss in affinity relative to wild-type receptor: I271A receptor vs WT
T4 sequence (P21554 whole entry I271A): as the sequence (P21554 whole entry F268W) above, with W268F, I271A counted along it

[6] = target: T1, human CB1 wild-type (WT) receptor; conditions: cited from earlier work
[7] = target: T2, human CB1 F268W mutant receptor; conditions: cited from earlier work
[8] = target: T3, human CB1 P269A mutant receptor; conditions: cited from earlier work
[9] = target: T4, human CB1 I271A mutant receptor; conditions: cited from earlier work

T1 sequence (P21554 whole entry): as the sequence (P21554 whole entry F268W) above, with W268F counted along it

| Compound | Ki [1] | Ki [2] | loss in affinity relative to wild-type receptor [2] | Ki [3] | Ki [4] | Ki [5] | loss in affinity relative to wild-type receptor [5] | binding affinity diminished relative to wild-type receptor (up to) [5] | Ki [6] | Ki [7] | Ki [8] | Ki [9] | reduced affinity relative to wild-type receptor ([3]; P269A receptor vs WT) | reduced affinity relative to wild-type receptor ([4]; H270A receptor vs WT) |
| --- | --- | --- | --- | --- | --- | --- | --- | --- | --- | --- | --- | --- | --- | --- |
| CS(=O)(=O)N(c1cc(F)cc(F)c1)C1CN(C(c2ccc(Cl)cc2)c2ccc(Cl)cc2)C1 [AVE1625, N-{1-[bis(4-chloro-phenyl)-methyl]azetidin-3-yl}-N-(3,5-difluorophenyl)methanesulfonamide] | 0.64 nM | 2.2 nM | 3 fold | 0.88 nM | 1.2 nM | 1.8 nM | 3 fold | – | – | – | – | – | – | – |
| N#Cc1c(Oc2cccc(OS(=O)(=O)CCCC(F)(F)F)c2)cccc1C(F)(F)F [BAY593074, 3-[2-cyano-3-(trifluoromethyl)phenoxy]phenyl-4,4,4-trifluoro-1-butanesulfonate] | 249 nM | 1860 nM | – | 341 nM | 412 nM | 2870 nM | – | up to 12 fold | – | – | – | – | – | – |
| CCCCCCC(C)(C)c1cc(O)c2c(c1)OC(C)(C)[C@@H]1CC=C(CO)C[C@@H]21 [HU-210, (−)-11-hydroxydimethylheptyl-Δ8-tetrahydrocannabinol] | – | – | – | – | 13.8 nM | – | – | – | 3.7 nM | 1670 nM | 22.6 nM | 310 nM | – | – |
| CCCCC(C)(C)c1cc(O)c2c(c1)OC(C)(C)C1CC=C(C)CC21 (stereo not drawn) [JWH061, 3-(1′,1′-dimethylpentyl)-Δ;8-tetrahydrocannabinol] | – | 3460 nM | – | 1730 nM | 373 nM | 773 nM | – | – | – | – | – | – | – | – |
| CC1=CCC2C(C1)c1c(O)cc(C(C)(C)C)cc1OC2(C)C (stereo not drawn) [JWH179, 3-(1′,1′-dimethylethyl)-Δ8-tetrahydrocannabinol] | – | 1110 nM | – | 798 nM | 90 nM | 194 nM | – | – | – | – | – | – | – | – |
| O=C(NN1CCCCC1)c1nn(-c2ccc(Cl)cc2Cl)c2c1CCCc1cc(Cl)ccc1-2 [NESS0327] | – | 21 nM | 5 fold | 3 nM | 6.1 nM | 11.2 nM | – | – | – | – | – | – | – | – |
| CCCCCc1ccc(-n2nc(C(=O)NN3CCCCC3)c(C)c2-c2ccc(Cl)cc2)cc1 [O-1255] | – | 310 nM | 4 fold | 74.7 nM | 113 nM | 460 nM | 6 fold | – | – | – | – | – | – | – |
| CCCCCc1ccc(-c2c(C)c(C(=O)NN3CCCCC3)nn2-c2ccc(Cl)cc2Cl)cc1 [O-1302, [I]N[/I]-(piperidin-1-yl)-1-(2,4-dichlorophenyl)-4-methyl-5-(4-pentylphenyl)-1H-pyrazole-3-carboxamide] | – | 26.2 nM | – | 1.1 nM | 2.6 nM | 38.4 nM | – | – | – | – | – | – | – | – |
| CCCCC(C)c1ccc(-c2c(-c3ccc(Cl)cc3Cl)nn(N3CCCCC3)c2C)cc1 (stereo not drawn) [O-1690, N-(N-piperdyl)-3-(2,4-dichlrophenyl)-4-(4′-(1′-methylpentyl)phenyl)-5-methylpyrazole] | – | 23.3 nM | – | 0.96 nM | 2 nM | 77.3 nM | – | – | – | – | – | – | – | – |
| CC1=CC[C@@H]2[C@@H](C1)c1ccc(CC#CCCCNS(C)(=O)=O)cc1OC2(C)C [O-2050, (6aR,10aR)-3-(1-methanesulfonylamino-4-hexyn-6-yl)-6a,7, 10,10a-tetrahydro-6,6,9-trimethyl-6H-dibenzo[b,d]pyran] | 3.4 nM | 148 nM | 44 fold | 68.6 nM | 40.2 nM | 166 nM | 49 fold | – | – | – | – | – | 20 fold | 12 fold |
